The values that follow come from patent EP3964211A1, “A COMPOSITION COMPRISING AN ASCORBYL PHOSPHATE, NIACINAMIDE AND ALLANTOIN FOR TREATING ACNE” (DSM IP Assets B.V., priority 2020, dated 2022).

The subject of this test is C. acnes (ATCC reference 11827). The test is described as follows: Cutibacterium acnes Time-Kill assay. Type of test: cell-based. As to the method: Sodium ascorbyl phosphate, niacinamide, allantoin as well as a combination thereof were screened for their potential anti-microbial activities against C. acnes (ATCC reference 11827). The action of ingredients and combinations thereof is assessed through a miniaturized method performed in liquid media in 96 deepwell plates format. The inhibition of the growth of C. acnes is compared to the same strain growth in corresponding optimal media.
The different ingredients are mixed in growth medium (final volume 2mL) in deepwell plates (n=3). Analysis controls are prepared and used identically to samples : • A growth control of Cutibacterium acnes in the corresponding culture medium; • A growth control of Cutibacterium acnes with ethanol at 2,5 % (v/v) directly in the culture medium; • A growth control of microorganisms with olive oil at 5 % (v/v) directly in the culture medium; • A control consisting of Salicylic acid at 0.5% directly in the culture medium Then, samples are contaminated with C. acnes, inoculum at final concentration of 3,7 x10^5 cfu/mL, […]
To perform the counting, aliquots of the contaminated samples are serially diluted (decimal dilutions) in culture medium in 96-well plates with triphenyltetrazolium and incubated at 37°C ± 2,5°C during 48 h. After 48 h at the optimal growing conditions, the last dilution showing a pink color (triphenyltetrazolium) or turbidity indicates the contamination rate and allow the determination of the corresponding microbial population.

Setting [1] is: 2 h, read-out: Log-step reduction (2h).

Like-named read-outs stand apart in the source and are kept apart here.

Consider `NC(=O)NC1NC(=O)NC1=O` (centres unmarked) [Allantoin, 2,5-dioxo-4-imidazolidinyl urea], for which, under “0.5 wt.-% in growth medium, 2h, compared to initial log/cfu of 5.6, n=3, read-out: Log-step reduction (2h)”, the log reduction at 0.5 % worked out at 0.6.
Turning to `NC(=O)c1cccnc1` [Niacinamide, pyridine-3-carboxamide], the log reduction at 3 % under setting [1] worked out at 0.7.
Take `O=C(O)c1ccccc1O` [Salicylic acid, reference compound]: the log reduction at 0.5 % came to 3 under setting [1] and 3 (2.5 h, read-out: log-step reduction of C. acnes).
Consider `O=C1O[C@H]([C@@H](O)CO)C(O)=C1OP(=O)(O)O` [Sodium ascorbyl phosphate, sodium ascorbyl phosphate], for which the log reduction at 3 % (3 wt.-% in growth medium, 2h, compared to initial log/cfu of 5.6, n=3, read-out: Log-step reduction (2h)) amounted to 1.7.
